Laboratory results published in ChEMBL document CHEMBL5390215, “SARS-CoV-2 papain-like protease (PLpro) inhibitory and antiviral activity of small molecule derivatives for drug leads” (Bioorg Med Chem Lett, 2023).

Experiments:
SARS-CoV-2 = experiment: Antiviral activity against SARS-CoV-2 infected Chlorocebus sabaeus Vero E6 cells assessed as inhibition of viral replication; assay type: functional; conditions: Severe acute respiratory syndrome coronavirus 2, Vero C1008; read-out: ID50 (the source's name)
[1] = molecular target: Replicase polyprotein 1ab (Severe acute respiratory syndrome coronavirus 2, UniProt P0DTD1); experiment: Inhibition of SARS-CoV-2 papain-like protease
SARS-CoV = experiment: Antiviral activity against SARS-CoV-1 infected Chlorocebus sabaeus Vero E6 cells assessed as inhibition of viral replication; assay type: functional; conditions: Severe acute respiratory syndrome-related coronavirus, Vero C1008; read-out: ID50 (the source's name)
[2] = molecular target: Replicase polyprotein 1ab (Severe acute respiratory syndrome-related coronavirus, UniProt P0C6X7); experiment: Inhibition of SARS-CoV-1 papain-like protease

SMILES | IC50 (SARS-CoV-2) [µM] | IC50 [1] [µM] | IC50 (SARS-CoV) [µM] | IC50 [2] [µM]
C[C@@H](NC(=O)[C@H](N)Cc1c[nH]c2ccccc12)c1cccc2ccccc12 | 31 | > 100 | – | –
Cc1ccc(CN)cc1C(=O)N[C@H](C)c1cccc2ccccc12 | 24 | – | – | –
C[C@@H](NC(=O)[C@@H](Cc1ccccc1)NC(=O)OC(C)(C)C)c1cccc2ccccc12 | 38 | > 100 | – | –
COc1ccc(C(=O)N[C@H](C)c2cccc3ccccc23)cc1N | > 100 | 35.2 | – | –
COc1ccc(CNC(=O)C2CCN([C@H](C)c3cccc4ccccc34)CC2)cc1 | 17 | 0.92 | 10.2 | 0.56
C[C@@H](NS(=O)(=O)c1ccc(N)cc1)c1cccc2ccccc12 | > 100 | > 100 | – | –
Cc1ccc(C(=O)NC(C)C)cc1C(=O)N[C@H](C)c1cccc2ccccc12 | > 100 | > 100 | – | –
COc1ccc([C@@H](C)NC(=O)c2cc(N)ccc2C)c2ccccc12 | 36 | > 100 | – | –
C[C@@H](NS(=O)(=O)c1cccc(N)c1)c1cccc2ccccc12 | 64 | – | – | –
CNCc1ccc(C)c(C(=O)N[C@H](C)c2cccc3ccccc23)c1 | 20 | – | – | –
C[C@@H](NS(=O)(=O)c1ccc([N+](=O)[O-])cc1)c1cccc2ccccc12 | 56 | 6.3 | – | –
Cc1ccc(N)cc1C(=O)N[C@H](C)c1cccc2ccccc12 | 38 | – | – | –
CCCN(CCC)C(=O)c1cccc(C(=O)N[C@H](C)c2cccc3ccccc23)c1 | 15 | 15.9 | – | –
COc1cccc(CNC(=O)C2CCN([C@H](C)c3ccc4ccccc4c3)CC2)c1 | 27 | – | – | 13.2
C[C@@H](NC(=O)[C@H](N)Cc1ccccc1)c1cccc2ccccc12 | 76 | > 100 | – | –
C[C@@H](NC(=O)[C@@H](NC(=O)OC(C)(C)C)c1ccccc1)c1cccc2ccccc12 | > 100 | 13.2 | – | –
C[C@@H](NC(=O)[C@H](NC(=O)OC(C)(C)C)c1ccccc1)c1cccc2ccccc12 | > 100 | 13.3 | – | –
CCCN(CCC)C(=O)c1ccc(C)c(C(=O)N[C@H](C)c2cccc3ccccc23)c1 | > 100 | > 100 | – | –
C[C@@H](NS(=O)(=O)c1cccc([N+](=O)[O-])c1)c1cccc2ccccc12 | 38 | 15.5 | – | –
C[C@@H](NC(=O)[C@@H](Cc1c[nH]c2ccccc12)NC(=O)OC(C)(C)C)c1cccc2ccccc12 | 36 | > 100 | – | –
